pIC50: −log10 of the molar value.
Experiments:
[1] = target: T1, CSBP2 (Homo sapiens, UniProt Q16539); experiment: CSBP Kinase Assay (32P transfer to EGFR-derived peptide T669); assay type: biochemical
T1 construct: made in house; host or cells: yeast
Method: Compounds (5 ul from [6X] stock^(2)) are pre-incubated with the enzyme and peptide for 20 min on ice prior to starting the reactions with 32P/MgATP. Reactions are incubated at 30° C. for 10 min and stopped by adding 10 ul of 0.3 M phosphoric acid. 32P-labeled peptide is separated on phosphocellulose (Wattman, p81) filters by spotting 30 ul reaction mixture. Filters are washed 3 times with 75 mM phosphoric acid followed by 2 washes with H2 O, and counted for 32P.

[2] = test system: human PGHS-2; experiment: PGHS-2 protein expression in LPS stimulated human monocytes; assay type: cell-based
Method: The following assay describes a method for determining the inhibitory effects of compounds of Formula (I) on human PGHS-2 protein expression in LPS stimulated human monocytes.
Method: Human peripheral blood monocytes were isolated from buffy coats by centrifugation through Ficoll and Percoll gradients. Cells were seeded at 2×10^6 /well in 24 well plates and allowed to adhere for 1 hour in RPMI supplemented with 1% human AB serum, 20 mM L-glutamine, Penicillin-Streptomycin and 10 mM HEPES. Compounds were added at various concentrations and incubated at 37° C. for 10 minutes. LPS was added at 50 ng/well (to induce enzyme expression) and incubated overnight at 37° C. The supernatant was removed and cells washed once in cold PBS. The cells were lysed in 100 μl of cold lysis buffer(50 mM Tris/HCl pH 7.5, 150 mM NaCl, 1% NP40, 0.5% sodium deoxycholate, 0.1% SDS, 300 ug/ml DNAse, 0.1% TRITON X-100, 1 mM PMSF, 1 mM leupeptin, 1 mM pepstatin). The lysate was centrifuged (10,000× g for 10 min. at 4° C.) to remove debris and the soluble fraction was subjected to SDS PAGE. analysis (12% gel). Protein separated on the gel were transferred onto nitrocellulose membrane by electrophoretic means for 2 hours at 60 volts. The membrane was pretreated for one hour in PBS/0.1% Tween 20 with 5% non-fat dry milk. After washing 3 times in PBS/Tween buffer, the membrane was incubated with a 1:2000 dilution of a monospecific antiserum to PGHS-2 or a 1:1000 dilution of an antiserum to PGHs-1 in PBS/Tween with 1% BSA for one hour with continuous shaking. The membrane was washed 3× in PBS/Tween and then incubated with a 1:3000 dilution of horseradish peroxidase conjugated donkey antiserum to rabbit Ig (Amersham) in PBS/Tween with 1% BSA for one hour with continuous shaking. The membrane was then washed 3× in PBS/Tween and the ECL immunodetection system (Amersham) was used to detect the level of expression of prostaglandin endoperoxide synthases-2.

[3] = test system: Interleukin-1 (IL-1); experiment: IL-1 production by LPS-stimulated human peripheral blood monocytes (IL-1 bioassay or ELISA); assay type: cell-based; conditions: LPS 50 ng/ml, 24 hours
Method: The cytokine-inhibiting effects of compounds of the present invention were determined by the following in vitro assays: Interleukin -1 (IL-1) Human peripheral blood monocytes are isolated and purified from either fresh blood preparations from volunteer donors, or from blood bank buffy coats, according to the procedure of Colotta et al, J Immunol, 132, 936 (1984). These monocytes (1×10^6) are plated in 24-well plates at a concentration of 1-2 million/ml per well. The cells are allowed to adhere for 2 hours, after which time non-adherent cells are removed by gentle washing. Test compounds are then added to the cells for about 1 hour before the addition of lipopolysaccharide (50 ng/ml), and the cultures are incubated at 37° C. for an additional 24 hours. At the end of this period, culture supernatants are removed and clarified of cells and all debris. Culture supernatants are then immediately assayed for IL-1 biological activity, either by the method of Simon et al., J. Immunol. Methods, 84, 85, (1985) (based on ability of IL-1 to stimulate a Interleukin 2 producing cell line (EL-4) to secrete IL-2, in concert with A23187 ionophore) or the method of Lee et al., J. ImmunoTherapy, 6 (1), 1-12 (1990) (ELISA assay).

[4] = test system: Tumour Necrosis Factor (TNF); experiment: TNF production by LPS-stimulated human peripheral blood monocytes (radioimmunoassay or ELISA); assay type: cell-based; conditions: LPS 100 ng/ml, 16-18 hours
[5] = test system: Interleukin-8 (IL-8); experiment: IL-8 production by primary human umbilical cord endothelial cells (HUVEC), ELISA; assay type: cell-based; conditions: test compound between 1 and 10 μM
Method: Primary human umbilical cord endothelial cells (HUVEC) (Cell Systems, […], Wash.) are maintained in culture medium supplemented with 15% fetal bovine serum and 1% CS-HBGF consisting of aFGF and heparin. The cells are then diluted 20-fold before being plated (250 μl) into gelating coated 96-well plates. Prior to use, culture medium are replaced with fresh medium (200 μl). Buffer or test compound (25 μl, at concentrations between 1 and 10 μM) is then added to each well in quadruplicate wells and the plates incubated for 6h in a humidified incubator at 37° C. in an atmosphere of 5% CO2. At the end of the incubation period, supernatant is removed and assayed for IL-8 concentration using an IL-8 ELISA kit obtained from R&D Systems (Minneapolis, Minn.). All data is presented as mean value (ng/ml) of multiple samples based on the standard curve. IC50's where appropriate are generated by non-linear regression analysis.

T1 sequence (Q16539 whole entry): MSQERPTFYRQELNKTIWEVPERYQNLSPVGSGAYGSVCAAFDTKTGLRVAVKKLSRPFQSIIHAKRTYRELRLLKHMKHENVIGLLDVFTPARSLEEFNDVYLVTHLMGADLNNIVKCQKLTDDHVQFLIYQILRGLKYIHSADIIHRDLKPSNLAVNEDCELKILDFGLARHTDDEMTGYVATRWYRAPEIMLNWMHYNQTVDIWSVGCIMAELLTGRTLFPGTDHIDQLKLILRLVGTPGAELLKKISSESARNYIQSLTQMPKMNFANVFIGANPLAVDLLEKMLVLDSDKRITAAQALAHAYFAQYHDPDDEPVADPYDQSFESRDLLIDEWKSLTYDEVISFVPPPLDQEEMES

SMILES: CCOc1nccc(-c2c(-c3ccc(F)cc3)ncn2[C@H]2CC[C@H](O)CC2)n1 [Example 9, trans-1-(4-Hydroxycyclohexyl)-4-(4-fluorophenyl)-5-[(2-ethoxy)pyrimidine-4-yl]imidazole]
- pIC50 [1]: > 4.30

SMILES: COc1ccc(C2CNC(=O)C2)cc1OC1CCCC1 (stereo not drawn) [rolipram]
- inhibition of LPS induced PGHS-2 protein expression ([2]; up to 10 uM): inactive

SMILES: CC(Cc1ccc(O)c(O)c1)C(C)Cc1ccc(O)c(O)c1 (stereo not drawn) [NDGA]
- inhibition of LPS induced PGHS-2 protein expression ([2]; up to 10 uM): inactive

SMILES: COc1nccc(-c2c(-c3ccc(F)cc3)ncn2[C@H]2CC[C@H](O)CC2)n1 [Example 2, trans-1-(4-Hydroxycyclohexyl)-4-(4-fluorophenyl)-5-[(2-methoxy)pyrimidin-4-yl]imidazole]
- inhibitory activity against IL-1 [3]: positive inhibitory activity
- inhibitory activity against TNF [4]: positive inhibitory activity
- inhibitory activity against IL-8 [5]: positive inhibitory activity

SMILES: C[S+]([O-])c1ccc(-c2nc3n(c2-c2ccncc2)CCC3)cc1 (stereo not drawn) [2-(4-Methylsulfinylphenyl)-3-(4-pyridyl)-6,7-dihydro-(5H)-pyrrolo[1,2-a]imidazole]
- inhibition of LPS induced PGHS-2 protein expression ([2]; up to 10 uM): inactive

SMILES: O=C1CCN(c2ccccc2)N1 [phenidone]
- inhibition of LPS induced PGHS-2 protein expression ([2]; up to 10 uM): inactive

SMILES: C[S+]([O-])c1ccc(-c2nc(-c3ccc(F)cc3)c(-c3ccncc3)[nH]2)cc1 (stereo not drawn) [4-(4-Fluorophenyl)-2-(4-methylsulfinylphenyl)-5-(4-pyridyl)imidazole]
- inhibition of LPS induced PGHS-2 protein expression ([2]; LPS stimulated human monocytes, rank order potency similar to that for inhibiting cytokine production): active
